According to article PMC7300217, “Surfactin Like Broad Spectrum Antimicrobial Lipopeptide Co-produced With Sublancin From Bacillus subtilis Strain A52: Dual Reservoir of Bioactives” (Frontiers in Microbiology, 2020):

Experiments:
F. moniliforme MTCC 158 = test: MIC against phytopathogenic fungi, 96-well microtiter plate assay; format: cell-based, Fusarium moniliforme; details: 1 × 10^5 spores/ml in PDB, 25°C, OD600 after 48 h, triplicate
Method: (§1) The antimicrobial activity was tested by well diffusion assay as mentioned earlier ([Singh et al., 2014]). Strain A52 was grown for 24 h in 500 ml of nutrient broth (NB, Hi-media, India) using 1000 ml flask and subsequently cells were removed by centrifugation (10,000 rpm for 15 min at 4°C). Supernatant was filtered through 0.22 μm filter (Millipore, United States) to obtain cell-free fermented broth (CFB) that was used for antimicrobial assay (50 μl) against various indicator strains and the activity was measured as diameter of inhibition zone. Test strains used were Staphylococcus aureus (MTCC 1430), Bacillus subtilis (MTCC 121), B. firmus (MTCC 488), B. licheniformis (MTCC 429), B. thuringiensis (MTCC 1953), Escherichia coli (MTCC 1610), Micrococcus luteus (MTCC 106), Steptococcus pyrogens (MTCC 1928), S. anginosus (MTCC 1929), S. oralis (MTCC 2696), S. mutans (MTCC 497), Candida albicans (MTCC 1637), C. albicans (MTCC 183), C. albicans (MTCC 227), C. tropicalis (MTCC 184), C. glabrata (MTCC 3019), C. haemulonii (MTCC 2766), and C. inconsplicue (MTCC 1074). The phytopathogenic fungi employed in this study were Alternaria brassicicola (MTCC 2102), Colletotrichum acutatum (MTCC 1037), and Fusarium moniliforme (MTCC 158). Clinical isolates of Candida were provided by National Culture Collection of Pathogenic Fungi (NCCPF), PGIMER, Chandigarh, India.
(§2) The minimum inhibitory concentration (MIC) of HPLC purified peptides was evaluated by using microtiter plate dilution assay. The peptide concentration was estimated using BCA protein assay (Thermo Fisher Scientific, United States) method as described by manufacturer. […] OD was measured at 600 nm after 24 and 48 h for bacteria and yeast, respectively, using ELISA microplate reader (Thermo, United States). MIC against phytopathogenic fungi was determined using 96-well microtiter plate assay ([Kaur et al., 2016]). […] The microplates were incubated at 25°C and readings were recorded at 600 nm after 48 h. […]

C. acutatum MTCC1037 = test: as above; format: cell-based, Colletotrichum acutatum; details: 1 × 10^5 spores/ml in PDB, 25°C, OD600 after 48 h, triplicate
Method: (§3) The antimicrobial activity was tested by well diffusion assay as mentioned earlier ([Singh et al., 2014]). Strain A52 was grown for 24 h in 500 ml of nutrient broth (NB, Hi-media, India) using 1000 ml flask and subsequently cells were removed by centrifugation (10,000 rpm for 15 min at 4°C). Supernatant was filtered through 0.22 μm filter (Millipore, United States) to obtain cell-free fermented broth (CFB) that was used for antimicrobial assay (50 μl) against various indicator strains and the activity was measured as diameter of inhibition zone. […]
as §2, with “assay.” for “assay. The peptide concentration was estimated using BCA protein assay (Thermo Fisher Scientific, United States) method as described by manufacturer.”

S. aureus MTCC 1430 [1] = test: MIC, microtiter plate dilution assay; format: cell-based, Staphylococcus aureus; details: 5 × 10^5 CFU/ml, 37°C, OD600 after 24 h, triplicate
Method: as §3
as §2, with “assay.” for “assay. The peptide concentration was estimated using BCA protein assay (Thermo Fisher Scientific, United States) method as described by manufacturer.”

rabbit blood cells = test: Hemolysis assay; format: cell-based, New Zealand white rabbit
Method: For hemolysis assay blood was collected from New Zealand white rabbit, centrifuged, washed three times, and resuspended in phosphate-buffered saline (PBS). Cells were counted using hemocytometer (adjusted to 2 × 10^8 cells/ml) and treated with different concentrations of peptides (between 10 and 200 μg/ml). They were incubated in a CO2 incubator for 24 h at 37°C and processed to observe release of hemoglobin as described earlier ([Singh et al., 2014]). PBS and 0.1% Triton X-100 were used as agents for 0 and 100% hemolysis, respectively.

C. albicans MTCC 183 [2] = test: MIC, microtiter plate dilution assay; format: cell-based, Candida albicans; details: 5 × 10^5 CFU/ml, 37°C, OD600 after 48 h, triplicate
Method: as §1
(§4) The minimum inhibitory concentration (MIC) of HPLC purified peptides was evaluated by using microtiter plate dilution assay. The peptide concentration was estimated using BCA protein assay (Thermo Fisher Scientific, United States) method as described by manufacturer. Actively growing test strains (5 × 10^5 CFU/ml) were inoculated in a 96-well plate with different concentrations of the peptides and plates were incubated for 24–48 h at 37°C (final volume in each well is 200 μl). OD was measured at 600 nm after 24 and 48 h for bacteria and yeast, respectively, using ELISA microplate reader (Thermo, United States). MIC against phytopathogenic fungi was determined using 96-well microtiter plate assay ([Kaur et al., 2016]). In 96-well microplates, 100 μl of fungal spore suspension (1 × 10^5 spores/ml) prepared in potato dextrose broth (PDB, Hi-media, India) was mixed with100 μl of fresh PDB containing different concentrations of lipopeptide. Control well contained 100 μl of fungal spore suspension and 100 μl of only medium. The microplates were incubated at 25°C and readings were recorded at 600 nm after 48 h. The lowest concentration showing no growth was considered as MIC. Each test was done in triplicate and optical density (OD600) of peptide treated wells were compared with uninoculated wells (blank medium control).

C. albicans MTCC 1637 = test: MIC, microtiter plate dilution assay; format: cell-based, Candida albicans; details: 5 × 10^5 CFU/ml, 37°C, OD600 after 48 h, triplicate
Method: as §1, §4

[3] = test system: C. albicans 400054 (clinical isolate); test: MIC, microtiter plate dilution assay; format: cell-based, Candida albicans; details: 5 × 10^5 CFU/ml, 37°C, OD600 after 48 h, triplicate
Method: as §1, §4

C. albicans MTCC 227 = test: MIC, microtiter plate dilution assay; format: cell-based, Candida albicans; details: 5 × 10^5 CFU/ml, 37°C, OD600 after 48 h, triplicate
Method: as §1, §4

S. aureus MTCC 1430 [4] = test: Time kill assay; format: cell-based, Staphylococcus aureus; details: 5X MIC, cells in PBS, CFU plated on nutrient agar
Method: Purified AMPs were used to perform time kill assay against S. aureus MTCC 1430 as mentioned earlier ([Baindara et al., 2016]). Actively growing bacterial culture (0.2–0.3 OD at 600 nm) was centrifuged (10,000 rpm for 15 min at 4°C) and washed thrice with sterile PBS buffer. […] Upon incubation for different time intervals, cells were removed from reaction mixture by centrifugation and washed with PBS buffer. Bacterial culture without AMP treatment was used as negative control. Samples were withdrawn at the end of different treatment time points starting from 0 to 8 h, bacterial cells were pelleted, serially diluted, and cell suspensions were plated on nutrient agar plates. For each treatment, negative controls were also processed under identical conditions and plated on NA. CFU at different time intervals were recorded after overnight incubation at 37°C.

C. albicans MTCC 183 [5] = test: Scanning electron microscopy of treated cells; format: cell-based, Candida albicans; details: 2X and 5X MIC, 37°C overnight
Method: The effect of peptide on cell membrane was determined by scanning electron microscopy (SEM) and transmission electron microscopy (TEM) after treatment with AMPs. For this, test strains S. aureus MTCC 1430 and C. albicans MTCC 183 were cultured to mid-log phase in respective media. The cells were harvested by centrifugation at 10,000 × g for 10 min, washed thrice with 1X PBS, and re-suspended to adjust an OD600 of 0.2. […] Following the incubation, cells were processed for SEM and TEM as described ([Raje et al., 2006]). The specimens were completely dried using freeze drier, coated with gold, and visualized under a scanning electron microscope (ZEISS, Germany). For TEM (JEOL, JEM 2100, United States), cells were treated with peptide, washed, and subjected to negative stain 0.1% sodium phosphotungstate (Sigma, United States) for visualization. Effect of A52 lipopeptide on fungal spore was observed through a phase contrast microscope (Nickon H600L, Japan).

E. coli MTCC 1610 = test: MIC, microtiter plate dilution assay; format: cell-based, Escherichia coli; details: 5 × 10^5 CFU/ml, 37°C, OD600 after 24 h, triplicate
Method: as §3
as §2, with “assay.” for “assay. The peptide concentration was estimated using BCA protein assay (Thermo Fisher Scientific, United States) method as described by manufacturer.”

Glu^1-Leu/Ile^2-Leu^3-Val^4-Asp^5-Leu^6-Leu/Ile^7 and a β-OH hexadecane fatty acid chain (lariat or depsi) [Lipopeptide A52, cyclic surfactin-like lipopeptide, 7 amino acids and C16 β-hydroxy fatty acid, 1061.9 Da, from B. subtilis strain A52]
MIC value, F. moniliforme MTCC 158 (F. moniliforme MTCC 158): 20 µg/mL
MIC value, C. acutatum MTCC1037 (C. acutatum MTCC1037): 35 µg/mL
MIC value, S. aureus MTCC 1430 (S. aureus MTCC 1430 [1]): 4 µg/mL
hemolytic activity (rabbit blood cells): demonstrated hemolytic activity
MIC value, C. albicans MTCC 183 (C. albicans MTCC 183 [2]): 12 µg/mL
MIC value, C. albicans MTCC 1637 (C. albicans MTCC 1637): 28 µg/mL
MIC value, C. albicans 400054 [3]: 16 µg/mL
MIC value, C. albicans MTCC 227 (C. albicans MTCC 227): 24 µg/mL
time of treatment to complete killing / complete reduction of bacterial load (S. aureus MTCC 1430 [4]): ≤ 7 h
cell morphology in SEM images (C. albicans MTCC 183 [5]): disintegrated outer cell membrane
MIC value, E. coli MTCC 1610 (E. coli MTCC 1610): 6 µg/mL
